Test results: publication PMC11558128 (Advanced Science, 2024)
Positions of bridges follow the written chain, without caps; N, C: chain ends. Residues, ends and D or L forms follow the SMILES beside them.

Target: T1, rKv4.2 (Rattus norvegicus, UniProt Q63881)
T1 construct: expressed in transfected cells; host or cells: HEK293T
T1 sequence (Q63881 1-630): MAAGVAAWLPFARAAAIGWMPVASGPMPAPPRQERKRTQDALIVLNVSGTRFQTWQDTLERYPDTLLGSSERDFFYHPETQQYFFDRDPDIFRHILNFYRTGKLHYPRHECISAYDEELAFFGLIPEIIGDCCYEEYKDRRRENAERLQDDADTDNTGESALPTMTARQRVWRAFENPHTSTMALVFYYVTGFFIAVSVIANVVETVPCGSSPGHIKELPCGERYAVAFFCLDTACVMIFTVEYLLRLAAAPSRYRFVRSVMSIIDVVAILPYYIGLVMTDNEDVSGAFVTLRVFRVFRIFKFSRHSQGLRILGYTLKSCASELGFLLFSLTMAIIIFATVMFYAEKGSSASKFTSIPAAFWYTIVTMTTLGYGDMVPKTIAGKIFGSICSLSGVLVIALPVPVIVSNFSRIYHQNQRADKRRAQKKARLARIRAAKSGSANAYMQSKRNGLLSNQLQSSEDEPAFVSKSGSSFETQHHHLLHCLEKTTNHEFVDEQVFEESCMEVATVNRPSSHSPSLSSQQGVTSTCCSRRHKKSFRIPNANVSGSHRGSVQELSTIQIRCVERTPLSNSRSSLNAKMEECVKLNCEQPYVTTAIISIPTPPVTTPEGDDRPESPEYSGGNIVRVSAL
Assay: cell-based
Settings: analogue compared with its parent toxin

`CC(C)C[C@H](NC(=O)[C@H](Cc1ccc(O)cc1)NC(=O)[C@@H](NC(=O)[C@H](CCCCN)NC(=O)[C@@H]1CSSC[C@@H]2NC(=O)[C@H](CCC(=O)O)NC(=O)[C@H](CC(N)=O)NC(=O)[C@H](CCCCN)NC(=O)CNC(=O)[C@@H]3CCCN3C(=O)[C@H]([C@@H](C)O)NC(=O)[C@@H]3CSSC[C@H](NC(=O)[C@H](C)NC(=O)[C@H](Cc4ccc(O)cc4)NC(=O)[C@H](CC(N)=O)NC(=O)[C@@H]4CCCN4C(=O)[C@H](CSSC[C@H](NC(=O)CN)C(=O)N[C@@H](CCCCN)C(=O)NCC(=O)N[C@@H](Cc4ccccc4)C(=O)NCC(=O)N[C@@H](CC(=O)O)C(=O)N[C@@H](CO)C(=O)N3)NC2=O)C(=O)N[C@@H](CO)C(=O)N[C@@H](CO)C(=O)N[C@@H](CCCCN)C(=O)N[C@@H](Cc2c[nH]cn2)C(=O)N[C@@H](CCCCN)C(=O)N[C@@H](C)C(=O)N1)C(C)C)C(N)=O` [W28A] (H-GCKGFGDSCTPGKNECCPNYACSSKHKACKVYL-NH2; disulfide 2-17, 9-22, 16-29; N-terminus and C-terminus assumed) was tested. Which “inhibition of rKv4.2, in words” value did it give?
Its value is “dramatically decreased inhibition”.

Same assay, conditions: whole-cell patch clamp, HEK293T; mean ± SEM, n = 3-8; SEM; read-out: IC50 on rKv4.2 WT

With `CC(C)C[C@H](NC(=O)[C@H](Cc1ccc(O)cc1)NC(=O)[C@@H](NC(=O)[C@H](CCCCN)NC(=O)[C@@H]1CSSC[C@@H]2NC(=O)[C@H](CCC(=O)O)NC(=O)[C@H](CC(N)=O)NC(=O)[C@H](CCCCN)NC(=O)[C@H](CCC(=O)O)NC(=O)[C@@H]3CCCN3C(=O)[C@H]([C@@H](C)O)NC(=O)[C@@H]3CSSC[C@H](NC(=O)[C@H](C)NC(=O)[C@H](Cc4ccc(O)cc4)NC(=O)[C@H](CC(N)=O)NC(=O)[C@@H]4CCCN4C(=O)[C@H](CSSC[C@H](NC(=O)CN)C(=O)N[C@@H](CCCCN)C(=O)NCC(=O)N[C@@H](Cc4ccccc4)C(=O)NCC(=O)N[C@@H](CC(=O)O)C(=O)N[C@@H](CO)C(=O)N3)NC2=O)C(=O)N[C@@H](CO)C(=O)N[C@@H](CO)C(=O)N[C@@H](CCCCN)C(=O)N[C@@H](Cc2c[nH]cn2)C(=O)N[C@@H](CCCCN)C(=O)N[C@@H](Cc2c[nH]c3ccccc23)C(=O)N1)C(C)C)C(N)=O` [G12E] (H-GCKGFGDSCTPEKNECCPNYACSSKHKWCKVYL-NH2; disulfide 2-17, 9-22, 16-29) as the compound, how does the IC50 read?
The IC50 was 359 ± 82 nM.

With `CC(C)C[C@H](NC(=O)[C@H](Cc1ccc(O)cc1)NC(=O)[C@@H](NC(=O)[C@H](CCCCN)NC(=O)[C@@H]1CSSC[C@@H]2NC(=O)[C@H](CCC(=O)O)NC(=O)[C@H](CC(N)=O)NC(=O)[C@H](CCCCN)NC(=O)CNC(=O)[C@@H]3CCCN3C(=O)[C@H]([C@@H](C)O)NC(=O)[C@@H]3CSSC[C@H](NC(=O)[C@H](C)NC(=O)[C@H](Cc4ccc(O)cc4)NC(=O)[C@H](CCCCN)NC(=O)[C@@H]4CCCN4C(=O)[C@H](CSSC[C@H](NC(=O)CN)C(=O)N[C@@H](CCCCN)C(=O)NCC(=O)N[C@@H](Cc4ccccc4)C(=O)NCC(=O)N[C@@H](CC(=O)O)C(=O)N[C@@H](CO)C(=O)N3)NC2=O)C(=O)N[C@@H](CO)C(=O)N[C@@H](CO)C(=O)N[C@@H](CCCCN)C(=O)N[C@@H](Cc2c[nH]cn2)C(=O)N[C@@H](CCCCN)C(=O)N[C@@H](Cc2c[nH]c3ccccc23)C(=O)N1)C(C)C)C(N)=O` [N19K] (H-GCKGFGDSCTPGKNECCPKYACSSKHKWCKVYL-NH2; disulfide 2-17, 9-22, 16-29) as the compound, how does the IC50 read?
The IC50 was 475 ± 103 nM.

Which IC50 does the source give for `CC(C)C[C@H](NC(=O)[C@H](Cc1ccc(O)cc1)NC(=O)[C@@H](NC(=O)[C@H](CCCCN)NC(=O)[C@@H]1CSSC[C@@H]2NC(=O)[C@H](CCC(=O)O)NC(=O)[C@H](CC(N)=O)NC(=O)[C@H](CCCCN)NC(=O)CNC(=O)[C@@H]3CCCN3C(=O)[C@H]([C@@H](C)O)NC(=O)[C@@H]3CSSC[C@H](NC(=O)[C@H](C)NC(=O)[C@H](Cc4ccc(O)cc4)NC(=O)[C@H](CC(N)=O)NC(=O)[C@H](C)NC(=O)[C@H](CSSC[C@H](NC(=O)CN)C(=O)N[C@@H](CCCCN)C(=O)NCC(=O)N[C@@H](Cc4ccccc4)C(=O)NCC(=O)N[C@@H](CC(=O)O)C(=O)N[C@@H](CO)C(=O)N3)NC2=O)C(=O)N[C@@H](CO)C(=O)N[C@@H](CO)C(=O)N[C@@H](CCCCN)C(=O)N[C@@H](Cc2c[nH]cn2)C(=O)N[C@@H](CCCCN)C(=O)N[C@@H](Cc2c[nH]c3ccccc23)C(=O)N1)C(C)C)C(N)=O` [P18A] (H-GCKGFGDSCTPGKNECCANYACSSKHKWCKVYL-NH2; disulfide 2-17, 9-22, 16-29) here?
The IC50 was 140 ± 43 nM.

For `CC(C)C[C@H](NC(=O)[C@H](Cc1ccc(O)cc1)NC(=O)[C@@H](NC(=O)[C@H](CCCCN)NC(=O)[C@@H]1CSSC[C@@H]2NC(=O)[C@H](CCC(=O)O)NC(=O)[C@H](CC(N)=O)NC(=O)[C@H](CCCCN)NC(=O)CNC(=O)[C@@H]3CCCN3C(=O)[C@H]([C@@H](C)O)NC(=O)[C@@H]3CSSC[C@H](NC(=O)[C@H](C)NC(=O)[C@H](Cc4ccc(O)cc4)NC(=O)[C@H](CC(N)=O)NC(=O)[C@@H]4CCCN4C(=O)[C@H](CSSC[C@H](NC(=O)[C@@H](N)Cc4ccccc4)C(=O)N[C@@H](CCCCN)C(=O)NCC(=O)N[C@@H](Cc4ccccc4)C(=O)NCC(=O)N[C@@H](CC(=O)O)C(=O)N[C@@H](CO)C(=O)N3)NC2=O)C(=O)N[C@@H](CO)C(=O)N[C@@H](CO)C(=O)N[C@@H](CCCCN)C(=O)N[C@@H](Cc2c[nH]cn2)C(=O)N[C@@H](CCCCN)C(=O)N[C@@H](Cc2c[nH]c3ccccc23)C(=O)N1)C(C)C)C(N)=O` [G1F] (H-FCKGFGDSCTPGKNECCPNYACSSKHKWCKVYL-NH2; disulfide 2-17, 9-22, 16-29), which IC50 is on record?
The IC50 was 176 ± 47 nM.

For `CC(C)C[C@H](NC(=O)[C@H](Cc1ccc(O)cc1)NC(=O)[C@@H](NC(=O)[C@H](CCCCN)NC(=O)[C@@H]1CSSC[C@@H]2NC(=O)[C@H](CCC(=O)O)NC(=O)[C@H](CC(N)=O)NC(=O)[C@H](CCCCN)NC(=O)CNC(=O)[C@@H]3CCCN3C(=O)[C@H]([C@@H](C)O)NC(=O)[C@@H]3CSSC[C@H](NC(=O)[C@H](C(C)C)NC(=O)[C@H](Cc4ccc(O)cc4)NC(=O)[C@H](CC(N)=O)NC(=O)[C@@H]4CCCN4C(=O)[C@H](CSSC[C@H](NC(=O)CN)C(=O)N[C@@H](CCCCN)C(=O)NCC(=O)N[C@@H](Cc4ccccc4)C(=O)NCC(=O)N[C@@H](CC(=O)O)C(=O)N[C@@H](CO)C(=O)N3)NC2=O)C(=O)N[C@@H](CO)C(=O)N[C@@H](CO)C(=O)N[C@@H](CCCCN)C(=O)N[C@@H](Cc2c[nH]cn2)C(=O)N[C@@H](CCCCN)C(=O)N[C@@H](Cc2c[nH]c3ccccc23)C(=O)N1)C(C)C)C(N)=O` [A21V] (H-GCKGFGDSCTPGKNECCPNYVCSSKHKWCKVYL-NH2; disulfide 2-17, 9-22, 16-29), which IC50 is on record?
Its IC50 is 1000 ± 144 nM.

How did the IC50 turn out when `CC(C)C[C@H](NC(=O)[C@H](Cc1ccc(O)cc1)NC(=O)[C@@H](NC(=O)[C@H](CCCCN)NC(=O)[C@@H]1CSSC[C@@H]2NC(=O)[C@H](CCC(=O)O)NC(=O)[C@H](CC(N)=O)NC(=O)[C@H](CCCCN)NC(=O)CNC(=O)[C@@H]3CCCN3C(=O)[C@H](CCC(=O)O)NC(=O)[C@@H]3CSSC[C@H](NC(=O)[C@H](C)NC(=O)[C@H](Cc4ccc(O)cc4)NC(=O)[C@H](CC(N)=O)NC(=O)[C@@H]4CCCN4C(=O)[C@H](CSSC[C@H](NC(=O)CN)C(=O)N[C@@H](CCCCN)C(=O)NCC(=O)N[C@@H](Cc4ccccc4)C(=O)NCC(=O)N[C@@H](CC(=O)O)C(=O)N[C@@H](CO)C(=O)N3)NC2=O)C(=O)N[C@@H](CO)C(=O)N[C@@H](CO)C(=O)N[C@@H](CCCCN)C(=O)N[C@@H](Cc2c[nH]cn2)C(=O)N[C@@H](CCCCN)C(=O)N[C@@H](Cc2c[nH]c3ccccc23)C(=O)N1)C(C)C)C(N)=O` [T10E] (H-GCKGFGDSCEPGKNECCPNYACSSKHKWCKVYL-NH2; disulfide 2-17, 9-22, 16-29) was run?
The IC50 was 452 ± 221 nM.

For `CC(C)C[C@H](NC(=O)[C@H](Cc1ccc(O)cc1)NC(=O)[C@@H](NC(=O)[C@H](CCCCN)NC(=O)[C@@H]1CSSC[C@@H]2NC(=O)[C@H](CCC(=O)O)NC(=O)[C@H](CC(N)=O)NC(=O)[C@H](CCCCN)NC(=O)CNC(=O)[C@@H]3CCCN3C(=O)[C@H]([C@@H](C)O)NC(=O)[C@@H]3CSSC[C@H](NC(=O)[C@H](C)NC(=O)[C@H](Cc4ccc(O)cc4)NC(=O)[C@H](CC(C)C)NC(=O)[C@@H]4CCCN4C(=O)[C@H](CSSC[C@H](NC(=O)CN)C(=O)N[C@@H](CCCCN)C(=O)NCC(=O)N[C@@H](Cc4ccccc4)C(=O)NCC(=O)N[C@@H](CC(=O)O)C(=O)N[C@@H](CO)C(=O)N3)NC2=O)C(=O)N[C@@H](CO)C(=O)N[C@@H](CO)C(=O)N[C@@H](CCCCN)C(=O)N[C@@H](Cc2c[nH]cn2)C(=O)N[C@@H](CCCCN)C(=O)N[C@@H](Cc2c[nH]c3ccccc23)C(=O)N1)C(C)C)C(N)=O` [N19L] (H-GCKGFGDSCTPGKNECCPLYACSSKHKWCKVYL-NH2; disulfide 2-17, 9-22, 16-29), which IC50 is on record?
The IC50 was 42 ± 4 nM.

How did the IC50 turn out when `CC(C)C[C@H](NC(=O)[C@H](Cc1ccc(O)cc1)NC(=O)[C@@H](NC(=O)[C@H](CCCCN)NC(=O)[C@@H]1CSSC[C@@H]2NC(=O)[C@H](CCC(=O)O)NC(=O)[C@H](CC(N)=O)NC(=O)[C@H](CCCCN)NC(=O)CNC(=O)[C@@H]3CCCN3C(=O)[C@H]([C@@H](C)O)NC(=O)[C@@H]3CSSC[C@H](NC(=O)[C@H](C)NC(=O)[C@H](Cc4ccc(O)cc4)NC(=O)[C@H](CC(N)=O)NC(=O)[C@@H]4CCCN4C(=O)[C@H](CSSC[C@H](NC(=O)CN)C(=O)N[C@@H](CCCCN)C(=O)NCC(=O)N[C@@H](CC(C)C)C(=O)NCC(=O)N[C@@H](CC(=O)O)C(=O)N[C@@H](CO)C(=O)N3)NC2=O)C(=O)N[C@@H](CO)C(=O)N[C@@H](CO)C(=O)N[C@@H](CCCCN)C(=O)N[C@@H](Cc2c[nH]cn2)C(=O)N[C@@H](CCCCN)C(=O)N[C@@H](Cc2c[nH]c3ccccc23)C(=O)N1)C(C)C)C(N)=O` [F5L] (H-GCKGLGDSCTPGKNECCPNYACSSKHKWCKVYL-NH2; disulfide 2-17, 9-22, 16-29) was run?
Its IC50 is 10000 ± 4000 nM.
